Patent US20220175955A1, “PEPTIDE DISPLAY TO ANTIGEN PRESENTING CELLS USING LIPID VEHICLE” (Torque Therapeutics Inc., priority 2018, published 2022)

System: CD11c+ BMDCs
Experiment: Antigen presentation (MHC I:SIINFEKL) on antigen-pulsed BMDCs in vitro, flow cytometry
Format: cell-based, mouse
Conditions: 1 μM epitope; later time points (48 h to 96 h); FIG. 1
Procedure: Bone marrow derived dendritic cells (BMDCs) were differentiated in vitro before antigen pulsing. Bone marrow cells were isolated from tibia and femur from C57bl/6 JrJ mice obtained from Janvier SAS. After sacrificing the mice by cervical dislocation, bones were isolated and kept in tissue storage solution (MACS Miltenyi). After a 2 min sterilization in 70% ethanol, bones were cut at each end with a scalpel end flushed with medium by using a 29 g insulin syringe. Following isolation, bone marrow cells were cultured in complete RPMI 1640 medium supplemented with 20 ng/ml mouse recombinant GM-CSF. On day 3, cells were supplemented with fresh medium containing GM-CSF. On day 6, immature BMDCs were harvested, re-plated and incubated with 1 μM liposomal (MK062 or MK062 TMX) or soluble SIINFEKL epitope. BMDCs were harvested after 24 or 48 hours for flow cytometry analysis. […] After blocking for 5 min on ice, cells were stained with antibodies against the dendritic cell marker CD11c and assessed for antigen presentation by an antibody recognizing SIINFEKL presented on MHC I molecules (H-2kb). […]
[…] After blocking for 5 min on ice, cells were stained with antibodies against the dendritic cell marker CD11c and assessed for antigen presentation by an antibody recognizing SIINFEKL presented on MHC I molecules (H-2kb). […]

## SIINFEKL (Synthetic antigen)
  Antigen presentation (MFI of MHC:SIINFEKL in CD11c+ BMDCs): decreased markedly
